Measured values: patent US20040102485A1, “Tartrate salt of thiazolidinedione derivative” (priority 2003, published 2004)

Experiment: Solid state stability of the Meso-Tartrate (storage in glass bottle, HPLC assay for final content and degradation products)
Type: physicochemical
Details: 1 month
Procedure: Solid State Stability of the Meso-Tartrate, recorded for the product of Example 1 The solid state stability of the drug substance was determined by storing approximately 1.0 g of the material in a glass bottle at i) 40° C./75% Relative Humidity (RH), open exposure, for 1 month and b) at 50° C., closed, for 1 month. The material was assayed by HPLC for final content and degradation products in both cases.

[1] = 40° C./75% Relative Humidity (RH), open exposure

## CN(CCOc1ccc(CC2SC(=O)NC2=O)cc1)c1ccccn1.O=C(O)C(O)C(O)C(=O)O (stereo not drawn) [Example 1, 5-[4-[2-(N-methyl-N-(2-pyridyl)amino)ethoxy]benzyl]thiazolidine-2,4-dione Meso-Tartrate]
[1]
  HPLC assay (final content): 97 % initial
  degradation (HPLC, degradation products): No significant degradation observed
50° C., closed
  HPLC assay (final content): 98 % initial
  degradation (HPLC, degradation products): No significant degradation observed
